A value given as a limit tells only on which side of the number the result lay.

For assay [1], the system named is S. pyogenes. To be noted: mice infected with S. pyogenes; cited from earlier work.
Assay [2] relates to E. coli. To be noted: cited from earlier work.
Assay [3] concerns S. pneumoniae IU1945 PBPs. In words: Competition assays with Boc-FL for S. pneumoniae IU1945 PBPs. The format is cell-based. To be noted: S. pneumoniae IU1945 cells. As to the method:
The protocol for SDS-PAGE gel preparation was previously described (Kocaoglu, O, et al. (2013) Curr Protoc Chem Biol 5, 239). Briefly, polyacrylamide gels were composed of 10% resolving gel (10.5 ml of 1.5 M Tris-HCl buffer pH 8.8, 10.5 ml of acrylamide:bis-acrylamide 29:1 (40% solution), 21 ml of H2O, 140 μl of 10% APS, 15 μl of tetramethylethylenediamine (TEMED)) and 4.5% stacking gel (2.5 ml of 0.5 M Tris-HCl buffer pH 6.8, 1.125 ml of acrylamide:bis-acrylamide 29:1 (40% solution), 6.375 ml of H2O, 30 μl of 10% APS, 10 μl of TEMED). Running parameters were 180 V, 400 mA, and 60 W for 1.5 h. Experiments to examine competition of acyl homoserine lactones or p-toluenesulfonic acid salts of the β-lactones with Boc-FL were performed with acrylamide:bis-acrylamide ratio of 37.5:1.
Cells from 1.5 ml of culture were harvested by centrifugation (16,100×g for 2 min at RT) and washed with 1 ml of PBS, pH 7.4. Cell pellets were resuspended in 50 μl of PBS containing 5, 10, and 20 μg/ml of β-lactone p-toluenesulfonic salts and incubated for 40 min at RT. Cells were pelleted and washed in 1 ml of PBS. Next, the cells were resuspended in 50 μl of PBS containing 5 μg/ml Boc-FL and incubated for 10 min at RT. Finally, the cells were resuspended in 100 μl PBS containing 1 or 10 mg/ml lysozyme and incubated for 30 min at 37° C. […]

For assay [4], the target named is T1, PBP2x (Streptococcus pneumoniae, UniProt P59676).
T1 construct: endogenous in cells; host or cells: S. pneumoniae IU1945 and E193 (Δpbp1b)
In words: Methicillin pre-treatment controls, gel-based analysis. To be noted: 7FL labeling. The format is cell-based, S. pneumoniae. The procedure:
Cells from 1.5 ml of S. pneumoniae IU1945 and E193 cultures at exponential phase (OD620˜0.2) were harvested by centrifugation (16,100×g for 2 min at RT) and washed with 1 ml of PBS, pH 7.4. Cell pellets were resuspended in 50 μl of PBS containing 0.1 μg/ml of methicillin and incubated for 30 min at RT. Cells were pelleted and washed in 1 ml of PBS. Next, the cells were resuspended in 50 μl of PBS containing 1 or 5 μg/ml of lac-L-Phe-FL or 5 μg/ml Boc-FL (as control) and incubated for 20 min at RT (10 min at RT for Boc-FL). Finally, the cells were resuspended in 100 μl PBS containing 1 or 10 mg/ml lysozyme and incubated for 30 min at 37° C. Cells were lysed and sample preparation for SDS-PAGE gel-based analysis was performed as described.

Assay [5] relates to S. pneumoniae cells. In words: 3D-SIM imaging of lactone probe labeled cells. The format is cell-based. To be noted: wild-type and Δpbp1b strains, ≈41 cells examined. As to the method: Cells from an overnight culture were diluted to OD620 0.02 in 2 ml of fresh BHI prewarmed to 37° C. and incubated at 37° C. in an atmosphere of 5% CO2. At OD620 0.2, 1.5 ml of culture was added to a microfuge tube and centrifuged at room temperature for 5 min at 16000×g. The supernatant was discarded, the pellet was resuspended in 1 ml room temperature PBS, and the culture was centrifuged a second time. The supernatant was discarded and the pellet was resuspended in either 50 μl of PBS with 5 μg mL^−1 7FL or 100 μl PBS with 5 μg mL^−1 8T. The cells were incubated for 20 min at room temperature in the dark. After incubation the cells were spun and washed with 1 ml of PBS (7FL) or 1 ml of PBS containing 50 mM glucose (8T). The cells were spun a second time and washed with 200 μl of PBS (7FL) or 200 μl of PBS with 50 mM glucose (8T), and finally spun a third time and resuspended in 100 μl of cold (4° C.) GTE buffer (50 mM glucose, 20 mM Tris pH 7.5, 1 mM EDTA). The cells were spun down at 4° C., the supernatant was discarded, and the pellet was resuspended in 15 μl of Vectashield Hardest Antifade (Vector Labs) and kept on ice. 1.2 μl of cells in antifade was pipetted onto a clean coverslip, applied to a slide, and imaged via 3D-SIM. 3D-SIM was performed using the OMX 3D-SIM super-resolution system located in the Indiana University Bloomington Light Microscopy Imaging Center (www.indiana.edu/˜lmic/microscopes/index.html#OMX). The system used is equipped with four Photometrics Cascade II EMCCD cameras that allow simultaneous imaging of up to four colors, and is controlled by DV-OMX software, with image processing by Applied Precision softWoRx 6.0.0 software. Exposure times and % T settings for DAPI, Alexa 488, and Alexa 568 images were 5 ms and 100% for all three channels.
For pre-treatment with methicillin followed by lactone probe labeling, duplicate 2 ml cultures of each strain were created and incubated as described above. At OD620 0.12, methicillin was added to a final concentration of 0.1 μg mL^−1 to one culture for each strain, and the strains were placed back in the incubator. After 20 min, all cultures were harvested, labeled, and imaged as described above.
For labeling of cells with both lactone probes, the following changes were made: After a 20 min incubation with 7FL, the cells were spun down and washed once in 1 ml of PBS. The cells were spun again and resuspended in 100 μl of 8T in PBS at 5 μg mL^−1. The cells were incubated for 20 min at room temperature in the dark, and then washed and imaged as described above for 8T labeling.

Assay [6] has as its system PBP3. To be noted: cited from earlier work.
In assay [7] the test system is PBP1b. To be noted: cited from earlier work.

T1 sequence (P59676 whole entry): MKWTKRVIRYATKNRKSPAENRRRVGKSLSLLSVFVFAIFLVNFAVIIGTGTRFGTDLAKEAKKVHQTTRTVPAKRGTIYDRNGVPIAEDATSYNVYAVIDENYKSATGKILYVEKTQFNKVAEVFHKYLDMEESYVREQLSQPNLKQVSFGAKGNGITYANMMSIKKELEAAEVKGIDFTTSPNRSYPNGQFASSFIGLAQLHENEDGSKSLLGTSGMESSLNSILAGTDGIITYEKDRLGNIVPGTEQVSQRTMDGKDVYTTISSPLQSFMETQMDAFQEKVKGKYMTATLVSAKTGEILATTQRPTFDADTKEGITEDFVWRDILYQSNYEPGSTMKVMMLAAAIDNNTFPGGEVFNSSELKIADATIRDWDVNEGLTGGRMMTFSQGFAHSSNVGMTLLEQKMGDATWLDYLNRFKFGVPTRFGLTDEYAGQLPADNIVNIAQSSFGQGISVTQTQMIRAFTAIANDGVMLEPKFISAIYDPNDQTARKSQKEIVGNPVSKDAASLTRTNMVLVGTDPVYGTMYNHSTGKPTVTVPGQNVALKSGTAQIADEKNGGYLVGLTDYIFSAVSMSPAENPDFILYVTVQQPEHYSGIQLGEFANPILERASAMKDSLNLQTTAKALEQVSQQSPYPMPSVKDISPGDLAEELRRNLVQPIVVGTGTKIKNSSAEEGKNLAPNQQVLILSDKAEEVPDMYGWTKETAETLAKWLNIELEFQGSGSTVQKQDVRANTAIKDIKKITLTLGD

As to `O=C(N[C@@H]1C(=O)O[C@@H]1Cc1ccc([N+](=O)[O-])cc1)c1cccc(O)c1O` [Obafluorin, obafluorin], in assay [1], the “protection of infected mice” value is reported as “provides protection”. Further, in assay [2], the “effect on cell morphology” value is “causes cell elongation”.

As to `CC(=O)N[C@@H]1C(=O)O[C@@H]1C` [SQ 26,517], the “PBP inhibition (competition with Boc-FL)” value in assay [3] is reported as “very weak inhibitor of PBP2a”.

Consider `COc1cccc(OC)c1C(=O)N[C@@H]1C(=O)N2[C@@H]1SC(C)(C)[C@@H]2C(=O)O` [methicillin, reference compound], for which the “PBP2x labeling following methicillin treatment” value in assay [4] is recorded as “dramatically decreased”. Moreover, the “methicillin-treated late division cells displaying empty septal rings” value in assay [5] (labeled with 7FL) was above 98%. Besides, in assay [5] (labeled with 8T), the “methicillin-treated late divisional cells showing empty septal rings” value is above 98%.

Consider [^3H]benzylpenicillin, for which the figures for the deacylation rate in assay [6] and in assay [7] were 5.7e-05 s⁻¹ and 5.6e-05 s⁻¹, respectively.

The values above are taken from US10822318B2, “Lactone-based probes and methods of use thereof” (REGENTS OF THE UNIVERSITY OF MINNESOTA, priority 2017, dated 2020).
